Source: US5733719A, “Method of making an assay compound” (priority 1995, dated 1998)
Structures can show the parent of a compound that is named as a salt.

How the values were obtained:
[1] = tested on: acute lympholytic Ficoll prepared lymphocytes; assay: Amino peptidase activity in acute lymphocytic leukemia lymphocytes; type: cell-based; settings: FIG. 4B, log fluorescence at 525 nm v. time
Excerpt: The cell's ability to fight off an invader lies within its genetics and therefore cell type. The "readiness" however of any genetically capable group of cells to defend is different. A measure of this "readiness" is manifest in the available proteolytic enzymes contained within vacuoles or on the surface of the cell. The assay compound hydrolysis rate increases with increased mass of enzymes giving a picture of immune competence both in number of cells and activity level. […] Images were generated using Universal Imaging.

aminopeptidase = assay: Inhibition of aminopeptidase reaction with (H-L-Asp)2 rhodamine 110; type: biochemical; settings: approximately 10 mM
Excerpt: The chemical nature of the buffer is important to the reactivity of the assay compound with the cellular enzymes. […] In addition, the assay compound hydrolysis by the enzyme occurs at an increased rate of reaction.

cells = settings: even when buffered
Procedure: Viability is confirmed with Trypan Blue or PI-FDA over a time period of 10 seconds to 30 minutes. If the viability of the cell sample at between one and three million cells/mL decreases by10% then the salt of the compound is rejected and another salt of the assay compound is synthesized.

[2] = Effect of sodium chloride on dipeptide reagent; settings: 7mM, pH range of 6.5 to 8.7
Excerpt: Inhibitors and poisons (or toxins) are components that can be added to reduce the activity of non-targeted enzymes that provide competing reactions for the leaving group. Inhibitors are usually very selective for a particular enzyme. For example, EDTA only works with enzymes requiring Ca^+2, Mg^+2 and some other metals. […] Preferred inhibitors for particular enzymes are included in Table 1.

Native free fluorescence = type: physicochemical
Excerpt: Assays for peptidases using assay compounds generate fluorescence generally in the range of 10^-5 to 10^-6 Molar free rhodamine 110. Therefore, it is preferred that the free rhodamine 110 and blocked peptide impurities in the assay reagent should be removed to a concentration of less than the fluorescence generated by about 1×10^-6 M and more preferably less than the fluorescence generated by about 10^-7 Molar free indicator group. This amounts to a 100,000 photon count using rhodamine 110 as a standard at 10^-7 -10^-8 M, preferably 5×10^-8 M in a 1 cm path length cuvette when measured over 10 min. on a photon counting spectrofluorometer manufactured by the SLM Company of Chicago, Ill. This corresponds to a use level on the flow cytometer where no cellular false positive can be detected for a 10 minute period at the highest sensitivity setting. […] The presence of impurities causes a decrease in the storage stability of the compound, resulting in an increased autohydrolysis which leads to increased background fluorescence. A compound should be free of impurities such that when the compound (or reagent containing the compound) is stored at 4° C. for 30 days, preferably 90 days, more preferably 180 days, most preferably one year, the background fluorescence increases less than 10%, preferably less than 5%, most preferably less than 1% over these time periods, respectively. […]

## CC(C)C[C@H](N)C(=O)Nc1ccc2c(c1)Oc1cc(NC(=O)[C@@H](N)CC(C)C)ccc1C21OC(=O)c2ccccc21 [LEU, (Leu)2 Rho 110]
[1]
  enzymatic activity: lost their enzymatic activity

## [Ca+2].[Cl-].[Cl-] [calcium chloride]
aminopeptidase
  inhibition of enzyme reaction with (H-L-Asp)2 rhodamine 110: inhibitory

## Br.Cc1ncc(C)n2nc(CCc3nc(-c4ccccc4)cn3C)nc12 [hydrogen bromide (HBr), hydrogen bromide]
cells
  effect on cells: kills cells

## [Cl-].[Na+] [sodium chloride]
[2]
  inhibitory effect on dipeptide reagent: slightly inhibitory effect

## CC(C)C[C@H](N)C(=O)NCC(=O)Nc1ccc2c(c1)Oc1cc(NC(=O)CNC(=O)[C@@H](N)CC(C)C)ccc1C21OC(=O)c2ccccc21 [tartrate salt of (LeuGly)2 rhodamine 110, (H--L--Leu--Gly)2 Rho 110-2Tartrate]
Native free fluorescence
  native free fluorescence: 61,000 photons
